Key:
[1] = test system: PANC-1; test: Inhibition of autophagy in human PANC-1 cells cultured in nutrient-deprived medium assessed as inhibition of LC3-2 expression at […] after 6 hrs by Western blot analysis relative to control; format: functional
[2] = test system: PANC-1; test: Inhibition of autophagy in human PANC-1 cells cultured in nutrient-deprived medium assessed as accumulation of LC3-2 expression at 25 uM after 6 hrs by Western blot analysis relative to control; format: functional

Row | SMILES | fold change (FC) [1] | fold change (FC) [2]
1 | Cn1cnc(N)c2ncnc1-2 [3-METHYLADENINE] | 2 | 
2 | CCN(CC)CCCC(C)Nc1ccnc2cc(Cl)ccc12 (configuration not stated) [CHLOROQUINE] |  | 2

From ChEMBL document CHEMBL4680108, “Ancistrolikokine E, a 5,8'-Coupled Naphthylisoquinoline Alkaloid, Eliminates the Tolerance of Cancer Cells to Nutrition Starvation by Inhibition of the Akt/mTOR/Autophagy Signaling Pathway” (2018)
